Patent US11702404B2, “GLP-1R modulating compounds” (priority 2019, dated 2023)
Where two headings read alike, the source gives them in different places.

Tests used:
[1] = molecular target: GLP-1R (Homo sapiens, UniProt P43220); experiment: GLP-1R activation: cAMP increase in CHO cells stably expressing GLP-1R; format: cell-based
[2] = Microsomal stability, human liver microsomes (predicted hepatic clearance); conditions: predicted from in vitro microsomal stability data
[3] = cAMP increase, CHO cells stably expressing GLP-1R, 10 point dose response, 30 minutes incubation, read-out: EC50

GLP-1R, sequence (P43220 24-463): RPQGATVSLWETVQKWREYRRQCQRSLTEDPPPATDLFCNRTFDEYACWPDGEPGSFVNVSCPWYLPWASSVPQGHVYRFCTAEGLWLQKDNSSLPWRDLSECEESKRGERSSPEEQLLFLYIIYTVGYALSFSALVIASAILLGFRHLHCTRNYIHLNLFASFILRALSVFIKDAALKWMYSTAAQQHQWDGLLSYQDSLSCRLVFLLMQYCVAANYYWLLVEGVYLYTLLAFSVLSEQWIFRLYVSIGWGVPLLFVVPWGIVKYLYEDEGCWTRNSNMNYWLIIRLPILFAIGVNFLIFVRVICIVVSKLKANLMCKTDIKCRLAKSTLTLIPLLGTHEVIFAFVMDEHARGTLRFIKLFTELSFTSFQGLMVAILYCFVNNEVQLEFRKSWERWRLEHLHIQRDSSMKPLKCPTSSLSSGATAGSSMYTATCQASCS

Row | Compound | EC50 [1, 3] [nM] | Predicted Hepatic Clearance (Pred. Cl.) [2] [L/h/kg] | EC50 ([1]; EC50 (nM)) [nM]
1 | CO[C@@H](CO)Cn1c(Cc2cc(F)c(-c3cccc(OCc4ccc(C#N)cc4F)n3)cc2F)nc2ccc(C(=O)O)cc21 [Example 619] | 3.1 | 0.40 | 
2 | COC[C@H](Cn1c(Cc2cc(F)c(-c3cccc(OCc4ccc(C#N)cc4F)n3)cc2F)nc2ccc(C(=O)O)cc21)OC [Example 620] |  | 0.40 | 7.5
3 | COC[C@@H](Cn1c(Cc2cc(F)c(-c3cccc(OCc4ccc(C#N)cc4F)n3)cc2F)nc2ccc(C(=O)O)cc21)OC [Example 621] |  | 0.64 | 17.4
4 | N#Cc1ccc(COc2nccc(-c3ccc(Cc4nc5ccc(C(=O)O)cc5n4Cc4ncco4)cc3F)n2)c(F)c1 [Example 622] | 2.68 | 0.38 | 
5 | N#Cc1ccc(COc2cccc(-c3cc(F)c(Cc4nc5ccc(C(=O)O)cc5n4CC45CC(CCO4)C5)cc3F)n2)c(F)c1 [Example 623] | 4.04 | 0.64 | 
6 | N#Cc1ccc(COc2cccc(-c3cc(F)c(Cc4nc5ccc(C(=O)O)cc5n4CC45COC(C4)C5)cc3F)n2)c(F)c1 [Example 624] | 1.68 | 0.30 | 
7 | N#Cc1ccc(COc2nccc(-c3ccc(Cc4nc5ccc(C(=O)O)cc5n4CC45CC(CO4)C5)cc3F)n2)c(F)c1 [Example 626] | 23.9 | 0.47 | 
8 | COC1(Cn2c(Cc3cc(F)c(-c4cccc(OCc5ccc(C#N)cc5F)n4)cc3F)nc3ccc(C(=O)O)cc32)CCOC1 (stereo not drawn) [Example 627] | 2.19 | 0.47 | 
9 | N#Cc1ccc(COc2cccc(-c3cc(F)c(Cc4nc5ccc(C(=O)O)cc5n4CCOC4CCC4)cc3F)n2)c(F)c1 [Example 628] | 13.4 | 0.19 | 
10 | N#Cc1ccc(COc2cccc(-c3cc(F)c(Cc4nc5ccc(C(=O)O)cc5n4[C@H]4CCNC4=O)cc3F)n2)c(F)c1 [Example 630] | 39.4 | 0.16 | 
11 | N#Cc1ccc(COc2cccc(-c3cc(F)c(Cc4nc5ccc(C(=O)O)cc5n4[C@@H]4CCNC4=O)cc3F)n2)c(F)c1 [Example 631] | 74.9 | 0.18 | 
12 | COCC1(Cn2c(Cc3cc(F)c(-c4cccc(OCc5ccc(C#N)cc5F)n4)cc3F)nc3ccc(C(=O)O)cc32)CC1 [Example 638] | 2.24 | 0.11 | 
13 | CN1CCO[C@H](Cn2c(Cc3cc(F)c(-c4cccc(OCc5ccc(C#N)cc5F)n4)cc3F)nc3ccc(C(=O)O)cc32)C1 [Example 639] | 78.2 | 0.30 | 
14 | N#Cc1ccc(COc2cccc(-c3cc(F)c(Cc4nc5ccc(C(=O)O)cc5n4CC4CCCCO4)cc3F)n2)c(F)c1 (stereo not drawn) [Example 640] | 16.6 | 0.51 | 
15 | N#Cc1ccc(COc2cccc(-c3cc(F)c(Cc4nc5ccc(C(=O)O)cc5n4C[C@H]4COCCO4)cc3F)n2)c(F)c1 [Example 641] | 65.9 | 0.17 | 
16 | N#Cc1ccc(COc2cccc(-c3cc(F)c(Cc4nc5ccc(C(=O)O)cc5n4C[C@@H]4COCCO4)cc3F)n2)c(F)c1 [Example 642] | 5.14 | 0.16 | 
17 | N#Cc1ccc(COc2nccc(-c3cc(F)c(Cc4nc5ccc(C(=O)O)cc5n4CC45CC(CO4)C5)cc3F)n2)c(F)c1 [Example 645] | 2.05 | 0.55 | 
18 | O=C(O)c1cc(F)c2nc(Cc3ccc(-c4cccc(OCc5ccc(C(F)F)cc5F)n4)cc3F)n(CC34CC(CO3)C4)c2c1 [Example 646] | 1.78 | 0.35 | 
19 | O=C(O)c1ccc2nc(Cc3ccc(-c4cccc(OCc5ccc(C(F)F)cc5F)n4)cc3F)n(CC34CC(CO3)C4)c2c1 [Example 647] | 3.02 | 0.21 | 
20 | N#Cc1ccc(COc2nccc(-c3ccc(Cc4nc5c(F)cc(C(=O)O)cc5n4CC45CC(CO4)C5)cc3F)n2)c(F)c1 [Example 650] | 19.6 | 0.66 | 
21 | CN1CCO[C@@H](Cn2c(Cc3cc(F)c(-c4cccc(OCc5ccc(C#N)cc5F)n4)cc3F)nc3ccc(C(=O)O)cc32)C1 [Example 651] | 2790 | 0.20 | 
22 | COCC1(Cn2c(Cc3cc(F)c(-c4cccc(OCc5ccc(C#N)cc5F)n4)cc3F)nc3ccc(C(=O)O)cc32)CCCO1 (stereo not drawn) [Example 652] | 8.79 | 0.48 | 
23 | N#Cc1ccc(COc2cccc(-c3cc(F)c(Cc4nc5ccc(C(=O)O)cc5n4CC4CC5(COC5)C4)cc3F)n2)c(F)c1 [Example 653] | 17 | 0.16 | 
24 | COCCn1c(Cc2c(F)cc(-c3cccc(OCc4ccc(Cl)nc4)n3)cc2F)nc2ccc(C(=O)O)cc21 [Example 654] | 24.9 | 0.21 | 
25 | N#Cc1ccc(COc2cccc(-c3ccc(Cc4nc5ccc(C(=O)O)cc5n4C[C@@H]4CCO4)cc3F)n2)cn1 [Example 656] | 1.52 | 0.28 | 
26 | COCCn1c(Cc2cc(F)c(-c3cccc(OCc4ccc(C#N)nc4)n3)cc2F)nc2c(F)cc(C(=O)O)cc21 [Example 657] | 5.88 | 0.24 | 
27 | COCCn1c(Cc2cc(F)c(-c3cccc(OCc4cc(Cl)ccc4F)n3)cc2F)nc2ccc(C(=O)O)cc21 [Example 660] | 50.5 | 0.25 | 
28 | COCCn1c(Cc2cc(F)c(-c3nc(OCc4ccc(C(F)F)cc4F)ccc3F)cc2F)nc2ccc(C(=O)O)cc21 [Example 661] | 1.95 | 0.24 | 

Second part, led by results:

Row | EC50 [1, 3] [nM] | Predicted Hepatic Clearance (Pred. Cl.) [2] [L/h/kg] | Compound | EC50 ([1]; EC50 (nM)) [nM]
29 | 0.55 | 0.22 | N#Cc1ccc(COc2nccc(-c3cc(F)c(Cc4nc5c(F)cc(C(=O)O)cc5n4Cc4ncco4)cc3F)n2)c(F)c1 [Example 617] | 
30 | 0.63 | 0.16 | N#Cc1ccc(COc2cccc(-c3ccc(Cc4nc5c(F)cc(C(=O)O)cc5n4Cc4ncco4)c(F)c3)n2)c(F)c1 [Example 625] | 
31 | 1.26 | 0.11 | N#Cc1ccc(COc2cccc(-c3cc(F)c(Cc4nc5ccc(C(=O)O)cc5n4CCOC4CC4)cc3F)n2)c(F)c1 [Example 629] | 
32 | 0.24 | 0.11 | N#Cc1ccc(COc2cccc(-c3cc(F)c(Cc4nc5ccc(C(=O)O)c(F)c5n4C[C@@H]4CCO4)cc3F)n2)c(F)c1 [Example 632] | 
33 | 0.17 | 0.29 | N#Cc1ccc(COc2cccc(-c3ccc(Cc4nc5c(F)cc(C(=O)O)cc5n4C[C@@H]4CCO4)cc3)n2)c(F)c1 [Example 633] | 
34 | 0.46 | 0.11 | COCCn1c(Cc2cc(F)c(-c3cccc(OCc4ccc(C(F)F)cc4F)n3)cc2F)nc2c(F)cc(C(=O)O)cc21 [Example 635] | 
35 | 1.27 | 0.39 | COC1(Cn2c(Cc3cc(F)c(-c4cccc(OCc5ccc(C#N)cc5F)n4)cc3F)nc3ccc(C(=O)O)cc32)COC1 [Example 636] | 
36 | 0.03 | 0.30 | O=C(O)c1cc(F)c2nc(Cc3cc(F)c(-c4cccc(OCc5ccc(C(F)F)cc5F)n4)cc3F)n(C[C@@H]3CCO3)c2c1 [Example 643] | 
37 | 0.69 | 0.48 | N#Cc1ccc(COc2nccc(-c3cc(F)c(Cc4nc5c(F)cc(C(=O)O)cc5n4CC45CC(CO4)C5)cc3F)n2)c(F)c1 [Example 644] | 
38 | 0.09 | 0.14 | O=C(O)c1cc(F)c2nc(Cc3ccc(-c4cccc(OCc5ccc(C(F)F)cc5F)n4)cc3F)n(C[C@@H]3CCO3)c2c1 [Example 648] | 
39 | 0.2 | 0.35 | N#Cc1ccc(COc2cccc(-c3cc(F)c(Cc4nc5c(F)cc(C(=O)O)cc5n4CC45CC(CO4)C5)cc3F)n2)c(F)c1 [Example 649] | 
40 | 1.26 | 0.32 | O=C(O)c1ccc2nc(Cc3ccc(-c4cccc(OCc5ccc(C(F)(F)F)nc5)n4)c(F)c3)n(C[C@@H]3CCO3)c2c1 [Example 655] | 
41 | 0.11 | 0.18 | O=C(O)c1cc(F)c2nc(Cc3cc(F)c(-c4cccc(OCc5ccc(Cl)nc5)n4)cc3F)n(C[C@@H]3CCO3)c2c1 [Example 658] | 
42 | 0.17 | 0.21 | N#Cc1ccc(COc2cccc(-c3cc(F)c(Cc4nc5c(F)cc(C(=O)O)cc5n4C[C@@H]4CCO4)cc3F)n2)cn1 [Example 659] | 
43 | 0.39 | 0.22 | COCCn1c(Cc2cc(F)c(-c3cccc(OCc4ccc(Cl)cc4F)n3)cc2F)nc2c(F)cc(C(=O)O)cc21 [Example 662] | 
44 | 0.51 | 0.11 | O=C(O)c1ccc2nc(Cc3cc(F)c(-c4cccc(OCc5ccc(Cl)cc5F)n4)cc3F)n(C[C@@H]3CCO3)c2c1 [Example 663] | 
45 | 0.67 | 0.28 | COCCn1c(Cc2cc(F)c(-c3nc(OCc4ccc(C(F)F)cc4F)ccc3F)cc2F)nc2c(F)cc(C(=O)O)cc21 [Example 664] | 
46 | 0.51 | 0.11 | O=C(O)c1ccc2nc(Cc3cc(F)c(-c4cccc(OCc5ccc(C(F)(F)F)cc5F)n4)cc3F)n(C[C@@H]3CCO3)c2c1 [Example 665] | 
47 | 0.51 | 0.20 | N#Cc1ccc(COc2nc(-c3ccc(Cc4nc5c(F)cc(C(=O)O)cc5n4C[C@@H]4CCO4)cc3F)ncc2F)c(F)c1 [Example 666] | 
48 | 0.1 | 0.36 | O=C(O)c1ccc2nc(Cc3ccc(-c4cccc(OCc5ccc(C(F)(F)F)cc5F)n4)cc3F)n(C[C@@H]3CCO3)c2c1 [Example 667] | 
